Data reported in the supplement of paper PMC10307832.

Experiments:
Experiment in all cases: relative viability (nuclei count vs DMSO), 5 days (fraction); higher = more cells survive
Selisistat + Palbociclib = compound: C1CC(C2=C(C1)C3=C(N2)C=CC(=C3)Cl)C(=O)N [Selisistat] + CC(=O)c1c(C)c2cnc(Nc3ccc(N4CCNCC4)cn3)nc2n(C2CCCC2)c1=O [Palbociclib] (partner 0.5 µM)
How it was run: (§1)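 Each reported value is a median over duplicate plates. It expresses relative viability: treated-well nuclei count divided by vehicle-well nuclei count. Lung cancer cell lines in 1536-well plates were dosed by pin tool a day after seeding, alone with one drug or with a fixed anchor-drug dose plus five library-drug doses (not always all listed) in √10 steps, and nuclei were counted after 5 days.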

Serdemetan + Crizotinib = compound: c1ccc2c(CCNc3ccc(Nc4ccncc4)cc3)c[nH]c2c1 [Serdemetan] + C[C@@H](Oc1cc(-c2cnn(C3CCNCC3)c2)cnc1N)c1c(Cl)ccc(F)c1Cl [Crizotinib] (partner 1 µM)
How it was run: as §1

Serdemetan + Decitabine = compound: c1ccc2c(CCNc3ccc(Nc4ccncc4)cc3)c[nH]c2c1 [Serdemetan] + Nc1ncn([C@H]2C[C@H](O)[C@@H](CO)O2)c(=O)n1 [Decitabine] (partner 2 µM)
How it was run: as §1

Selisistat + AZD7762 = compound: C1CC(C2=C(C1)C3=C(N2)C=CC(=C3)Cl)C(=O)N [Selisistat] + NC(=O)Nc1cc(-c2cccc(F)c2)sc1C(=O)N[C@H]1CCCNC1 [AZD7762] (partner 0.2 µM)
How it was run: as §1

In the case of SK-MES-1, the relative viability (Selisistat + Palbociclib; first compound 0.4 µM) is reported as 0.34, the relative viability (Selisistat + Palbociclib; first compound 1.265 µM) is reported as 0.347 and the relative viability (Selisistat + Palbociclib; first compound 4 µM) is reported as 0.309. The relative viability (Selisistat + Palbociclib; first compound 12.65 µM) was 0.314, the relative viability (Selisistat + Palbociclib; first compound 40 µM) was 0.378 and the relative viability (Serdemetan + Crizotinib; first compound 0.04 µM) was 0.983. The relative viability (Serdemetan + Crizotinib; first compound 0.1265 µM) was 0.976, the relative viability (Serdemetan + Crizotinib; first compound 0.4 µM) was 0.898 and the relative viability (Serdemetan + Crizotinib; first compound 1.265 µM) was 0.647. The relative viability (Serdemetan + Crizotinib; first compound 4 µM) was 0.56, the relative viability (Serdemetan + Decitabine; first compound 0.04 µM) was 0.327 and the relative viability (Serdemetan + Decitabine; first compound 0.1265 µM) was 0.368. It also gave a relative viability (Serdemetan + Decitabine; first compound 0.4 µM) of 0.397, a relative viability (Serdemetan + Decitabine; first compound 1.265 µM) of 0.33 and a relative viability (Serdemetan + Decitabine; first compound 4 µM) of 0.281.

Cell Line SW 1573 has a relative viability (Selisistat + Palbociclib; first compound 0.4 µM) of 0.353, a relative viability (Selisistat + Palbociclib; first compound 1.265 µM) of 0.366 and a relative viability (Selisistat + Palbociclib; first compound 12.65 µM) of 0.371. For the same cell line, the relative viability (Selisistat + Palbociclib; first compound 40 µM) was 0.388, the relative viability (Serdemetan + Crizotinib; first compound 0.04 µM) was 0.851 and the relative viability (Serdemetan + Crizotinib; first compound 0.1265 µM) was 0.702. The relative viability (Serdemetan + Crizotinib; first compound 0.4 µM) was 0.761, the relative viability (Serdemetan + Crizotinib; first compound 1.265 µM) was 0.385 and the relative viability (Serdemetan + Crizotinib; first compound 4 µM) was 0.207. It also gave a relative viability (Serdemetan + Decitabine; first compound 0.04 µM) of 0.484, a relative viability (Serdemetan + Decitabine; first compound 0.1265 µM) of 0.522 and a relative viability (Serdemetan + Decitabine; first compound 0.4 µM) of 0.427. The relative viability (Serdemetan + Decitabine; first compound 1.265 µM) was 0.249 and the relative viability (Serdemetan + Decitabine; first compound 4 µM) was 0.219.

Cell Line NCI-H661 has a relative viability (Selisistat + Palbociclib; first compound 0.4 µM) of 0.421, a relative viability (Selisistat + Palbociclib; first compound 1.265 µM) of 0.392 and a relative viability (Selisistat + Palbociclib; first compound 4 µM) of 0.374. The relative viability (Selisistat + Palbociclib; first compound 12.65 µM) was 0.414, the relative viability (Selisistat + Palbociclib; first compound 40 µM) was 0.374 and the relative viability (Serdemetan + Crizotinib; first compound 0.04 µM) was 1.01. For the same cell line, the relative viability (Serdemetan + Crizotinib; first compound 0.4 µM) was 0.977, the relative viability (Serdemetan + Crizotinib; first compound 4 µM) was 0.987 and the relative viability (Serdemetan + Decitabine; first compound 0.04 µM) was 0.543. The relative viability (Serdemetan + Decitabine; first compound 0.1265 µM) was 0.533, the relative viability (Serdemetan + Decitabine; first compound 0.4 µM) was 0.533 and the relative viability (Serdemetan + Decitabine; first compound 1.265 µM) was 0.473. It also gave a relative viability (Serdemetan + Decitabine; first compound 4 µM) of 0.469.

Cell Line PC-3 [JPC-3] has a relative viability (Selisistat + Palbociclib; first compound 0.4 µM) of 0.608, a relative viability (Selisistat + Palbociclib; first compound 1.265 µM) of 0.636 and a relative viability (Selisistat + Palbociclib; first compound 12.65 µM) of 0.571. It also gave a relative viability (Selisistat + Palbociclib; first compound 40 µM) of 0.529, a relative viability (Selisistat + AZD7762; first compound 0.4 µM) of 0.834 and a relative viability (Selisistat + AZD7762; first compound 1.265 µM) of 0.861. It also gave a relative viability (Selisistat + AZD7762; first compound 12.65 µM) of 0.744, a relative viability (Selisistat + AZD7762; first compound 40 µM) of 0.695 and a relative viability (Serdemetan + Crizotinib; first compound 0.04 µM) of 0.947. The relative viability (Serdemetan + Crizotinib; first compound 0.1265 µM) was 0.94, the relative viability (Serdemetan + Crizotinib; first compound 1.265 µM) was 1.02 and the relative viability (Serdemetan + Crizotinib; first compound 4 µM) was 1.03. The relative viability (Serdemetan + Decitabine; first compound 0.04 µM) was 0.901, the relative viability (Serdemetan + Decitabine; first compound 0.1265 µM) was 0.844 and the relative viability (Serdemetan + Decitabine; first compound 0.4 µM) was 0.854. For the same cell line, the relative viability (Serdemetan + Decitabine; first compound 1.265 µM) was 0.847 and the relative viability (Serdemetan + Decitabine; first compound 4 µM) was 0.742.

Cell Line Calu-6 has a relative viability (Serdemetan + Crizotinib; first compound 0.04 µM) of 0.832, a relative viability (Serdemetan + Crizotinib; first compound 0.1265 µM) of 0.718 and a relative viability (Serdemetan + Crizotinib; first compound 0.4 µM) of 0.712. The relative viability (Serdemetan + Crizotinib; first compound 1.265 µM) was 0.566 and the relative viability (Serdemetan + Crizotinib; first compound 4 µM) was 0.527.

For LC-2-ad, the relative viability (Selisistat + Palbociclib; first compound 0.4 µM) was 0.508, the relative viability (Selisistat + Palbociclib; first compound 1.265 µM) was 0.49 and the relative viability (Selisistat + Palbociclib; first compound 4 µM) was 0.498. For the same cell line, the relative viability (Selisistat + Palbociclib; first compound 12.65 µM) was 0.502, the relative viability (Selisistat + Palbociclib; first compound 40 µM) was 0.555 and the relative viability (Selisistat + AZD7762; first compound 0.4 µM) was 0.827. The relative viability (Selisistat + AZD7762; first compound 1.265 µM) was 0.814, the relative viability (Selisistat + AZD7762; first compound 4 µM) was 0.68 and the relative viability (Selisistat + AZD7762; first compound 12.65 µM) was 0.775. For the same cell line, the relative viability (Selisistat + AZD7762; first compound 40 µM) was 0.9, the relative viability (Serdemetan + Crizotinib; first compound 0.04 µM) was 0.455 and the relative viability (Serdemetan + Crizotinib; first compound 0.1265 µM) was 0.429. The relative viability (Serdemetan + Crizotinib; first compound 0.4 µM) was 0.39, the relative viability (Serdemetan + Crizotinib; first compound 1.265 µM) was 0.394 and the relative viability (Serdemetan + Crizotinib; first compound 4 µM) was 0.407. It also gave a relative viability (Serdemetan + Decitabine; first compound 0.04 µM) of 0.795, a relative viability (Serdemetan + Decitabine; first compound 0.1265 µM) of 0.727 and a relative viability (Serdemetan + Decitabine; first compound 0.4 µM) of 0.679. For the same cell line, the relative viability (Serdemetan + Decitabine; first compound 1.265 µM) was 0.714 and the relative viability (Serdemetan + Decitabine; first compound 4 µM) was 0.634.

For CAL-12T, the relative viability (Selisistat + Palbociclib; first compound 0.4 µM) was 0.534, the relative viability (Selisistat + Palbociclib; first compound 1.265 µM) was 0.41 and the relative viability (Selisistat + Palbociclib; first compound 4 µM) was 0.122. The relative viability (Selisistat + Palbociclib; first compound 12.65 µM) was 0.448, the relative viability (Selisistat + Palbociclib; first compound 40 µM) was 0.409 and the relative viability (Selisistat + AZD7762; first compound 0.4 µM) was 0.589. The relative viability (Selisistat + AZD7762; first compound 1.265 µM) was 0.626, the relative viability (Selisistat + AZD7762; first compound 4 µM) was 0.566 and the relative viability (Selisistat + AZD7762; first compound 12.65 µM) was 0.605. The relative viability (Selisistat + AZD7762; first compound 40 µM) was 0.732, the relative viability (Serdemetan + Crizotinib; first compound 0.04 µM) was 0.63 and the relative viability (Serdemetan + Crizotinib; first compound 0.1265 µM) was 0.705. The relative viability (Serdemetan + Crizotinib; first compound 0.4 µM) was 0.608 and the relative viability (Serdemetan + Crizotinib; first compound 4 µM) was 0.74.

For RERF-LC-KJ, the relative viability (Selisistat + Palbociclib; first compound 0.4 µM) was 1.15, the relative viability (Selisistat + Palbociclib; first compound 1.265 µM) was 1.02 and the relative viability (Selisistat + Palbociclib; first compound 4 µM) was 0.995. It also gave a relative viability (Selisistat + Palbociclib; first compound 12.65 µM) of 0.909, a relative viability (Selisistat + Palbociclib; first compound 40 µM) of 0.952 and a relative viability (Selisistat + AZD7762; first compound 0.4 µM) of 0.932. The relative viability (Selisistat + AZD7762; first compound 1.265 µM) was 0.765, the relative viability (Selisistat + AZD7762; first compound 4 µM) was 0.823 and the relative viability (Selisistat + AZD7762; first compound 12.65 µM) was 0.898. The relative viability (Selisistat + AZD7762; first compound 40 µM) was 0.877, the relative viability (Serdemetan + Crizotinib; first compound 0.04 µM) was 0.763 and the relative viability (Serdemetan + Crizotinib; first compound 0.1265 µM) was 0.818. It also gave a relative viability (Serdemetan + Crizotinib; first compound 0.4 µM) of 0.718, a relative viability (Serdemetan + Crizotinib; first compound 1.265 µM) of 0.705 and a relative viability (Serdemetan + Crizotinib; first compound 4 µM) of 0.753. The relative viability (Serdemetan + Decitabine; first compound 0.04 µM) was 0.785, the relative viability (Serdemetan + Decitabine; first compound 0.1265 µM) was 0.636 and the relative viability (Serdemetan + Decitabine; first compound 0.4 µM) was 0.722. The relative viability (Serdemetan + Decitabine; first compound 1.265 µM) was 0.489 and the relative viability (Serdemetan + Decitabine; first compound 4 µM) was 0.605.

Work on NCI-H1650 yielded a relative viability (Selisistat + Palbociclib; first compound 0.4 µM) of 0.362, a relative viability (Selisistat + Palbociclib; first compound 1.265 µM) of 0.301 and a relative viability (Selisistat + Palbociclib; first compound 4 µM) of 0.357. For the same cell line, the relative viability (Selisistat + Palbociclib; first compound 12.65 µM) was 0.364, the relative viability (Selisistat + Palbociclib; first compound 40 µM) was 0.334 and the relative viability (Serdemetan + Crizotinib; first compound 0.04 µM) was 0.914. For the same cell line, the relative viability (Serdemetan + Crizotinib; first compound 0.1265 µM) was 1.09, the relative viability (Serdemetan + Crizotinib; first compound 0.4 µM) was 0.927 and the relative viability (Serdemetan + Crizotinib; first compound 1.265 µM) was 0.944. For the same cell line, the relative viability (Serdemetan + Crizotinib; first compound 4 µM) was 0.879, the relative viability (Serdemetan + Decitabine; first compound 0.04 µM) was 0.408 and the relative viability (Serdemetan + Decitabine; first compound 0.1265 µM) was 0.435. The relative viability (Serdemetan + Decitabine; first compound 0.4 µM) was 0.411, the relative viability (Serdemetan + Decitabine; first compound 1.265 µM) was 0.422 and the relative viability (Serdemetan + Decitabine; first compound 4 µM) was 0.266.

BEN was tested, and the relative viability (Selisistat + Palbociclib; first compound 0.4 µM) was 0.467, the relative viability (Selisistat + Palbociclib; first compound 1.265 µM) was 0.502 and the relative viability (Selisistat + Palbociclib; first compound 4 µM) was 0.486. For the same cell line, the relative viability (Selisistat + Palbociclib; first compound 12.65 µM) was 0.448, the relative viability (Selisistat + Palbociclib; first compound 40 µM) was 0.459 and the relative viability (Selisistat + AZD7762; first compound 0.4 µM) was 0.74. The relative viability (Selisistat + AZD7762; first compound 1.265 µM) was 0.535, the relative viability (Selisistat + AZD7762; first compound 4 µM) was 0.471 and the relative viability (Selisistat + AZD7762; first compound 12.65 µM) was 0.71. The relative viability (Selisistat + AZD7762; first compound 40 µM) was 0.649, the relative viability (Serdemetan + Crizotinib; first compound 0.04 µM) was 0.826 and the relative viability (Serdemetan + Crizotinib; first compound 0.1265 µM) was 0.864. The relative viability (Serdemetan + Crizotinib; first compound 0.4 µM) was 0.944, the relative viability (Serdemetan + Crizotinib; first compound 1.265 µM) was 0.759 and the relative viability (Serdemetan + Crizotinib; first compound 4 µM) was 0.64. The relative viability (Serdemetan + Decitabine; first compound 0.04 µM) was 0.649, the relative viability (Serdemetan + Decitabine; first compound 0.1265 µM) was 0.612 and the relative viability (Serdemetan + Decitabine; first compound 0.4 µM) was 0.726. It also gave a relative viability (Serdemetan + Decitabine; first compound 1.265 µM) of 0.631 and a relative viability (Serdemetan + Decitabine; first compound 4 µM) of 0.647.
